Data on seven compounds can be found in ChEMBL document CHEMBL1138246, “Ester prodrugs of cyclic 1-(S)-[3-hydroxy-2-(phosphonomethoxy)propyl]-5-azacytosine: synthesis and antiviral activity” (J Med Chem, 2007).

Each structure is given as a SMILES string. ≈ marks a conversion by molar mass, not a printed value.

For this assay, the system named is Vaccinia virus. It is filed as functional, organism-based. The following applies: Orthopoxvirus vaccinia, Lederle, HEL.

As usually defined, the EC50 is the concentration needed to bring the measured effect to its halfway point. In turn, `Nc1ncn(C[C@@H](CO)OCP(=O)(O)O)c(=O)n1` came in with an EC50 of 2.16 µg/mL (≈ 7.71 µM).
Compound `Nc1ncn(C[C@H]2COP(=O)(O)CO2)c(=O)n1` gave an EC50 of 2.12 µg/mL (≈ 8.09 µM).
In turn, `CCCCCCCCCCCCCCCCOCCOP1(=O)CO[C@@H](Cn2cnc(N)nc2=O)CO1` (some centres not stated) registered an EC50 of 0.037 µg/mL (≈ 0.0697 µM).
Consider `CCCCCCCCCCCCCCCCCCOP1(=O)CO[C@@H](Cn2cnc(N)nc2=O)CO1` (some centres not stated), for which the response was half-maximal at 4.45 µg/mL (≈ 8.65 µM) (EC50).
On to `CC(C)(C)C(=O)OCOP1(=O)CO[C@@H](Cn2cnc(N)nc2=O)CO1` (some centres not stated), for which a half-maximal response (EC50) required 0.79 µg/mL (≈ 2.1 µM).
As to `Nc1ccn(C[C@@H](CO)OCP(=O)(O)O)c(=O)n1.O.O` [CIDOFOVIR], the midpoint of the response, the EC50, lay at 3.09 µg/mL.
As for `Nc1ccn(C[C@H]2COP(=O)(O)CO2)c(=O)n1` [CYCLIC CIDOFOVIR], the figure is 2.78 µg/mL (≈ 10.6 µM).
